Reference: ChEMBL document CHEMBL1128725, “Design and synthesis of 1-heteroaryl-3-(1-benzyl-4-piperidinyl)propan-1-one derivatives as potent, selective acetylcholinesterase inhibitors” (J Med Chem, 1995)

Columns and labels:
Cholinesterase = Cholinesterase (Homo sapiens, UniProt P06276)
Description: Concentration required to inhibit 50% of Butyrylcholinesterase obtained from human serum was determined in vitro

Acetylcholinesterase = Acetylcholinesterase (Homo sapiens, UniProt P22303)
Chain of Acetylcholinesterase (P22303 whole entry): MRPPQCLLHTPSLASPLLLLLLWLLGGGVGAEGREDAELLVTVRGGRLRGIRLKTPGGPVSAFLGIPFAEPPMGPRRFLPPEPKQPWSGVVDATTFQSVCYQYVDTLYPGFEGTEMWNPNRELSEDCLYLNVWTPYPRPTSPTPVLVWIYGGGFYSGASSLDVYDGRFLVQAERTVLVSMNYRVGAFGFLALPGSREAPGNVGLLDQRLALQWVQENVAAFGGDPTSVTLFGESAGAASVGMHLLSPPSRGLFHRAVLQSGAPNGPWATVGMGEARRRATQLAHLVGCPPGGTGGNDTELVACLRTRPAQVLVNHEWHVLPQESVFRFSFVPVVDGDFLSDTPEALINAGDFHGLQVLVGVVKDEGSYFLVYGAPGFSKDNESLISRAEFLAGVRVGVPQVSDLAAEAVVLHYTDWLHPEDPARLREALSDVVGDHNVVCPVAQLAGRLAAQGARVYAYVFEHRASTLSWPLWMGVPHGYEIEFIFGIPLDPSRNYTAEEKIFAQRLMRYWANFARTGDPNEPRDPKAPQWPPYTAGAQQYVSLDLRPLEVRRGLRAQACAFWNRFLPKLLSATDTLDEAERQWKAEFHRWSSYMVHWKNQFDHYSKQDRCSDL
Description: Concentration required to inhibit 50% of Acetylcholinesterase obtained from human erythrocytes was determined in vitro

Chain of Cholinesterase (P06276 whole entry): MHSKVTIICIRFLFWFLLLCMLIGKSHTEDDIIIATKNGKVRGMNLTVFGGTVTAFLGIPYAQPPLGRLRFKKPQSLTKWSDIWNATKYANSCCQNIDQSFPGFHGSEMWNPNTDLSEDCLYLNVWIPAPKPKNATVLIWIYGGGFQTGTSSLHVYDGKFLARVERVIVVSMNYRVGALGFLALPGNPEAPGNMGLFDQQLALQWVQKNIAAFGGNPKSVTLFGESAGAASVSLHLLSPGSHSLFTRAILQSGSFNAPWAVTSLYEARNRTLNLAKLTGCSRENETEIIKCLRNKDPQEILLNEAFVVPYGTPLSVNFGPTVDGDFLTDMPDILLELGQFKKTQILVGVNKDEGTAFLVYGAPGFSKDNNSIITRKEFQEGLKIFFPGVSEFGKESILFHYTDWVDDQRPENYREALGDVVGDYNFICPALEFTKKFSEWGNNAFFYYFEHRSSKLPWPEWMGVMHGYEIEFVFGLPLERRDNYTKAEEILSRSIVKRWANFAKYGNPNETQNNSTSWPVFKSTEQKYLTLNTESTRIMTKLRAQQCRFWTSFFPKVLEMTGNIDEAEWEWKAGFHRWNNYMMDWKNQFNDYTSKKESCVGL

SMILES	IC50 (Cholinesterase) [µM]	IC50 (Acetylcholinesterase) [µM]
O=C(CCC1CCN(Cc2ccccc2)CC1)c1ccc2[nH]c(-c3ccccc3)nc2c1	0.89	0.033
Cc1nc2cc(C(=O)CCC3CCN(Cc4ccccc4)CC3)ccc2[nH]1	6.2	0.012
O=C(CCC1CCN(Cc2ccccc2)CC1)c1ccccc1	4.3	
Cc1nc2ccc(C(=O)CCC3CCN(Cc4ccccc4)CC3)cc2s1	3.4	0.0068
O=C(CCC1CCN(Cc2ccccc2)CC1)c1ccc2c(c1)OCCO2	4.8	0.03
CCn1c(C)nc2cc(C(=O)CCC3CCN(Cc4ccccc4)CC3)ccc21	4.2	0.0043
